The record followed here is BindingDB's records for doi:10.3109/14756366.2012.656622 (Shandong University, 2013).

Structures can show the parent of a compound that is named as a salt.

The target of experiment [1] is 72 kDa type IV collagenase (Pig, UniProt Q95JA4). As to the kind of experiment: MMP-2 Inhibition Assay. The method, then:
Gelatinase A (MMP-2) and TNBS were purchased from Sigma, and the substance was synthesized as described by Vijaykumar et al. The gelatinase, substance, and inhibitor were dissolved in sodium borate (pH8.5, 50 mmol/L) and incubated for 30 min at 37 °C, and then 0.03 % TNBS was added and incubated for another 20 min, the resulting solution was detected under 450 nm wavelength to gain absorption.

Experiment [2] concerns the target T1, Aminopeptidase N (Sus scrofa, UniProt P15145).
T1 sequence (P15145 whole entry): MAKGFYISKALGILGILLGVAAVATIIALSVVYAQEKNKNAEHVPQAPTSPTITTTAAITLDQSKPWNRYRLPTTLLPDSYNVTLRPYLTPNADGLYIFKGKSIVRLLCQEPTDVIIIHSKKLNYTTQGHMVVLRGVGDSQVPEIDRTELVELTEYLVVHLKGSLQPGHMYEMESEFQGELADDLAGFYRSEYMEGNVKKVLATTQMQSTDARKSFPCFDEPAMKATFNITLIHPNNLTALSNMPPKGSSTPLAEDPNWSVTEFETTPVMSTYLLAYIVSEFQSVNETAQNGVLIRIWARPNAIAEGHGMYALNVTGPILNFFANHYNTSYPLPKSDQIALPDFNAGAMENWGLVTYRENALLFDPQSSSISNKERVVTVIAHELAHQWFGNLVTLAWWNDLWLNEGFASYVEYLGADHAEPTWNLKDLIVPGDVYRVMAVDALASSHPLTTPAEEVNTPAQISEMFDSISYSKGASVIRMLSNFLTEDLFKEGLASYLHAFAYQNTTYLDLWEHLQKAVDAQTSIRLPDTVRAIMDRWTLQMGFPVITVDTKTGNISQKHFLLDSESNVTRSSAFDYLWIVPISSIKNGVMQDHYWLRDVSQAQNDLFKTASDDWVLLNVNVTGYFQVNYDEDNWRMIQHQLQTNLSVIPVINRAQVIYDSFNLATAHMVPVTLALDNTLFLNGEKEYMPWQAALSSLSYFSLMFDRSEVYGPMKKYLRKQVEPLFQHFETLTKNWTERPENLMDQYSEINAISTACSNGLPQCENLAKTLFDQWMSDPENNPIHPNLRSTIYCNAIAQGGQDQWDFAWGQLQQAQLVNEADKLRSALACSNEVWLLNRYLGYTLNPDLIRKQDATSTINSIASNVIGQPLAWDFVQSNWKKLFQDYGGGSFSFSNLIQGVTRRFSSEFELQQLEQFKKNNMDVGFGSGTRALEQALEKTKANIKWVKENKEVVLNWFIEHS
As to the kind of experiment: APN Inhibition Assay. To be noted: pH 7.5; 25 °C. The method, then:
IC50 values against APN from Porcine Kidney were determined by using L-Leu-p-nitroanilide as a substrate. All the solutions of the inhibitors were prepared in the assay buffer( pH 7.5). All the inhibitors were preincubated with APN for 5 min at room temperature. The assay mixture, which contained the inhibitor solution (concentration dependent on the inhibitor), the enzyme solution (4 mg/mL final concentration), and the assay buffer, was adjusted to 200 μL, and then incubated at 37 ℃ for 30 min.

Sequence of 72 kDa type IV collagenase (Q95JA4 whole entry): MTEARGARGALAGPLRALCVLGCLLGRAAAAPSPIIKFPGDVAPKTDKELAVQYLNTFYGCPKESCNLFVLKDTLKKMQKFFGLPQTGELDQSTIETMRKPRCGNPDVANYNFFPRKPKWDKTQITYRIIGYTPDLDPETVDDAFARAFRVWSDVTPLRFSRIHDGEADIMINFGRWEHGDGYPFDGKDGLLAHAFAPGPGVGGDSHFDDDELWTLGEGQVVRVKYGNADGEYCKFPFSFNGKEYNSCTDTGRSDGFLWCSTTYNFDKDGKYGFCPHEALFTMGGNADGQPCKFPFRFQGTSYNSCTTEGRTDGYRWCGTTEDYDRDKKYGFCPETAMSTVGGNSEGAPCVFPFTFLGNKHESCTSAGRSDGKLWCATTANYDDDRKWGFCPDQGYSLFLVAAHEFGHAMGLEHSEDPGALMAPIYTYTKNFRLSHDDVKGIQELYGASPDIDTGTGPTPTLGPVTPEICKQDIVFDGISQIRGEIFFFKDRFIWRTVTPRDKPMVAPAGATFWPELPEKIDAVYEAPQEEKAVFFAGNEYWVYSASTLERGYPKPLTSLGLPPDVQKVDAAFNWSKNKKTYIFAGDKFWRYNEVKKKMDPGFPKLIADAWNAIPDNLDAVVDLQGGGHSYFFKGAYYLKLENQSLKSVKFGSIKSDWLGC

With `CC(C)C[C@H](NC(=O)[C@H](O)[C@@H](N)c1ccccc1)C(=O)NC(C(=O)O)c1ccccc1` (stereo partly drawn) [(S)-2-((S)-2-((2R,3S)-3-amino-2-hydroxy-3-phenylpropanamido)-4-methylpentanamido)-2-phenylacetic acid hydrochloride (5k)], the IC50 (as a rule, the point on the concentration scale where inhibition reaches its midpoint) in experiment [1] was 186 µM.
Still for that read-out and setting: for `CCC(C)[C@H](NC(=O)[C@H](O)[C@@H](N)c1ccccc1)C(=O)O` (stereo partly drawn) [(2S)-2-((2R,3S)-3-amino-2-hydroxy-3-phenylpropanamido)-3-methylpentanoic acid hydrochloride (5d)] the value was 264 µM.
On the same count and under the same terms, with `N[C@@H](c1ccccc1)[C@@H](O)C(=O)N[C@@H](Cc1ccc(O)cc1)C(=O)O` [(S)-2-((2R,3S)-3-amino-2-hydroxy-3-phenylpropanamido)-3-(4-hydroxyphenyl) propanoic acid hydrochloride (5g)] the figure was 407 µM.
In experiment [2], `CC(C)C[C@H](NC(=O)[C@H](Cc1ccccc1)NC(=O)[C@H](O)[C@@H](N)c1ccccc1)C(=O)O` [(S)-2-((S)-2-((2R,3S)-3-amino-2-hydroxy-3-phenylpropanamido)-3-phenylpropanamido)-4-methylpentanoic acid hydrochloride (5n)] came in with an IC50 of 105 µM.
With `N[C@@H](c1ccccc1)[C@@H](O)C(=O)N[C@@H](Cc1ccccc1)C(=O)NO` [(2R,3S)-3-amino-2-hydroxy-N-((S)-1-(hydroxyamino)-1-oxo-3-phenylpropan-2-yl)-3-phenylpropanamide hydrochloride (7f)], the results for the IC50 in experiment [2] and in experiment [1] were 44 µM and 249 µM, respectively.
The corresponding values for `N[C@@H](c1ccccc1)[C@@H](O)C(=O)N[C@@H](Cc1ccc(O)cc1)C(=O)NO` [(2R,3S)-3-amino-2-hydroxy-N-((S)-1-(hydroxyamino)-3-(4-hydroxyphenyl)-1-oxopropan-2-yl)-3-phenylpropanamide hydrochloride (7g)] are 173 µM and 299 µM.
As for `Cc1ccccc1NC(=O)[C@H](CC(C)C)NC(=O)[C@H](O)[C@@H](N)c1ccccc1` [(S)-2-((2R,3S)-3-amino-2-hydroxy-3-phenylpropanamido)-4-methyl-N-o-tolylpentanamide hydrochloride (9b)], in experiment [2], the 50% inhibitory concentration (IC50) was determined as 363 µM.
`CC(C)C[C@H](NC(=O)[C@H](O)[C@@H](N)c1ccccc1)C(=O)NO` [(S)-2-((2R,3S)-3-amino-2-hydroxy-3-phenylpropanamido)-N-hydroxy-4-methylpentanamide hydrochloride (7a)]: the IC50 in experiment [2] stood at 56.7 µM; in experiment [1] it was 64.6 µM.
Consider `C[C@H](NC(=O)[C@H](O)[C@@H](N)c1ccccc1)C(=O)NO` [(2R,3S)-3-amino-2-hydroxy-N-((S)-1-(hydroxyamino)-1-oxopropan-2-yl)-3-phenylpropanamide hydrochloride (7c)], for which, in experiment [1], half-maximal inhibition (IC50) was put at 292 µM.
Take `N[C@@H](c1ccccc1)[C@@H](O)C(=O)N[C@@H](CO)C(=O)O` [(S)-2-((2R,3S)-3-amino-2-hydroxy-3-phenylpropanamido)-3-hydroxypropanoic acid hydrochloride (5h)]: in experiment [1], the half-maximal inhibitory concentration (IC50) was determined as 562 µM.
Consider `CC(C)C[C@H](NC(=O)[C@H](O)[C@@H](N)c1ccccc1)C(=O)N[C@H](C(=O)O)C(C)C` [(S)-2-((S)-2-((2R,3S)-3-amino-2-hydroxy-3-phenylpropanamido)-4-methylpentanamido)-3-methylbutanoic acid hydrochloride (5i)], for which the 50% inhibitory concentration (IC50) in experiment [2] is 590 µM; in experiment [1], 690 µM.
As to `N[C@@H](c1ccccc1)[C@@H](O)C(=O)N[C@@H](Cc1ccccc1)C(=O)O` [(S)-2-((2R,3S)-3-amino-2-hydroxy-3-phenylpropanamido)-3-phenylpropanoic acid hydrochloride (5f)], the IC50 in experiment [1] amounted to 497 µM.
For `CCC(C)[C@H](NC(=O)[C@H](O)[C@@H](N)c1ccccc1)C(=O)NO` (stereo partly drawn) [(2S)-2-((2R,3S)-3-amino-2-hydroxy-3-phenylpropanamido)-N-hydroxy-3-methylpentanamide hydrochloride (7d)], the concentration for half-maximal inhibition (IC50) is 82.9 µM in experiment [2] and 207 µM in experiment [1].
`CC(C)[C@H](NC(=O)[C@H](O)[C@@H](N)c1ccccc1)C(=O)NO` [(S)-2-((2R,3S)-3-amino-2-hydroxy-3-phenylpropanamido)-N-hydroxy-3-methylbutanamide hydrochloride (7b)]: the values for the IC50 in experiment [2] and in experiment [1] were 76.9 µM and 128 µM, respectively.
The like results for `N[C@@H](c1ccccc1)[C@@H](O)C(=O)N[C@@H](CO)C(=O)NO` [(2R,3S)-3-amino-2-hydroxy-N-((S)-3-hydroxy-1-(hydroxyamino)-1-oxopropan-2-yl)-3-phenylpropanamide hydrochloride (7h)] were, in that order, 158 µM and 292 µM.
`CC(C)C[C@H](NC(=O)[C@@H](O)[C@H](N)Cc1ccccc1)C(=O)O`: the IC50 in experiment [1] was found to be 163 µM.
`N[C@@H](c1ccccc1)[C@@H](O)C(=O)N[C@H](C(=O)NO)c1ccccc1` [(2R,3S)-3-amino-2-hydroxy-N-((S)-2-(hydroxyamino)-2-oxo-1-phenylethyl)-3-phenylpropanamide hydrochloride (7e)]: the IC50 in experiment [2] was 1.26 µM; in experiment [1], 213 µM.
The corresponding values for `C[C@H](NC(=O)[C@H](O)[C@@H](N)c1ccccc1)C(=O)O` [(S)-2-((2R,3S)-3-amino-2-hydroxy-3-phenylpropanamido)propanoic acid hydrochloride (5c)] are 342 µM and 273 µM.
For the compound `CC(C)[C@H](NC(=O)[C@H](O)[C@@H](N)c1ccccc1)C(=O)O` [(S)-2-((2R,3S)-3-amino-2-hydroxy-3-phenylpropanamido)-3-methylbutanoic acid hydrochloride (5b)], half-maximal inhibition in experiment [1] (IC50) was put at 287 µM.
Regarding `N[C@@H](c1ccccc1)[C@@H](O)C(=O)N[C@H](C(=O)O)c1ccccc1` [(S)-2-((2R,3S)-3-amino-2-hydroxy-3-phenylpropanamido)-2-phenylacetic acid hydrochloride (5e)], the IC50 in experiment [2] amounted to 198 µM; in experiment [1], 254 µM.
Turning to `CC(C)C[C@H](NC(=O)[C@H](O)[C@@H](N)c1ccccc1)C(=O)O` [(S)-2-((2R,3S)-3-amino-2-hydroxy-3-phenylpropanamido)-4-methylpentanoic acid hydrochloride (5a)], the IC50 in experiment [2] was determined as 352 µM; in experiment [1], 215 µM.
The corresponding values for `CC(C)C[C@H](NC(=O)[C@H](CC(C)C)NC(=O)[C@H](O)[C@@H](N)c1ccccc1)C(=O)O` [(S)-2-((S)-2-((2R,3S)-3-amino-2-hydroxy-3-phenylpropanamido)-4-methylpentanamido)-4-methylpentanoic acid hydrochloride (5j)] are 513 µM and 424 µM.
